The values below are quoted from earlier work in patent US8648060B2, “Use of 3-alpha-androstanediol in combination with a 5-HT1a agonist, in the treatment of sexual dysfunction” (Emotional Brain B.V., priority 2006, dated 2014).

The conditions of this data set: serum concentration; capsule.

Take `CCCc1nn(C)c2c(=O)[nH]c(-c3cc(S(=O)(=O)N4CCN(C)CC4)ccc3OCC)nc12.O=C(O)CC(O)(CC(=O)O)C(=O)O` [sildenafil, 1-[[3-(6,7-dihydro-1-methyl-7-oxo-3-propyl-1Hpyrazolo[4,3-d]pyrimidin-5-yl)-4-ethoxyphenyl]sulfonyl]-4-methylpiperazine citrate]: the Tmax of sildenafil was 0.5 to 2 h and the T½ is 3.5 h.
